Data as given in patent US8633242B2, “Benzylidene indanones and processes for preparation and use thereof” (Council of Scientific and Industrial Research, priority 2011, dated 2014).

Key:
A549 (Lung) = test: Sulphorhodamine B cytotoxicity assay, A549; format: cell-based, human; design: key to Human cancer cell lines IC50, A549 (Lung): Inactive: inactive, if IC50 > 100 μM; conditions: for IC50: read-out: Human cancer cell lines IC50, A549 (Lung)
Method: (§1) The benzylidene analogues were evaluated by Sulphorhodamine B Assay as per reported method [Skehan et al., J. Natl. Cancer Inst. 1990, 82, 1107]. The human cancer cell lines procured from National Cancer institute, Frederick, U.S.A. were used in present study. Cells were grown in tissue culture flasks in complete growth medium (RPMI-1640 medium with 2 mM glutamine, pH 7.4 supplemented with 10% fetal bovine serum, 100 μg/ml streptomycin and 100 units/ml penicillin) in a carbon dioxide incubator (37° C., 5% CO2, 90% RH). The cells at subconfluent stage were harvested from the flask by treatment with trypsin (0.05% in PBS (pH 7.4) containing 0.02% EDTA). Cells with viability of more than 98%, as determined by trypan blue exclusion, were used for determination of cytotoxicity. The cell suspension required concentration of cells was prepared in complete growth medium. Stock solution of 2×10^−2 M of compounds were prepared in DMSO and further dilution was carried out complete growth medium containing 50 μg/ml of gentamycin to obtained working test solution of required concentration. In vitro cytotoxicity against various human cancer cell lines was determined using 96-well cell culture plates. The 100 μl of cell suspension was added to each well of the 96-well cell culture plates. The cells were allowed to grow in CO2 incubator (37° C., 5% CO2, 90% RH) for 24 hours. The test materials in complete growth medium (100 μl) were added after 24 hours incubation to the wells containing cell suspension. The plates were further incubated for 48 hours (37° C. in an atmosphere of 5% CO2 and 90% relative humidity) in a carbon dioxide incubator after addition of test material and then the cell growth was stopped by gently layering trichloroacetic acid (50% TCA, 50 μl) on top of the medium in all the wells. The plates were incubated at 4° C. for one hour to fix the cells attached to the bottom of the wells. The liquid of all the wells was gently pipetted out and discarded. The plates were washed five times with distilled water to remove TCA, growth medium low molecular weight metabolites, serum proteins etc. and air-dried. Cell growth was measured by staining with sulforhodamine B dye. The adsorbed dye was dissolved in Tris-HCl Buffer (100 μl/well, 0.01M, pH 10.4) and plates were gently stirred for 10 minutes on a mechanical stirrer. The optical density (OD) was recorded on ELISA reader at 540 nm. 5-Fluorouracil, Paclitaxel (Taxol), Mitomycin-c and Adriamycin were used as positive controls.

PC-3 (prostate) = test: Sulphorhodamine B cytotoxicity assay, PC-3; format: cell-based, human; design: key to Human cancer cell lines IC50, PC-3 (prostate): Inactive: inactive, if IC50 > 100 μM; conditions: for IC50: Homo sapiens, read-out: Human cancer cell lines IC50, PC-3 (prostate); for IC50 / Human cancer cell lines IC50, PC-3 (prostate): SRB assay, 48 hours incubation
Method: as §1

HCT (Colon) = test: Sulphorhodamine B cytotoxicity assay, HCT; format: cell-based, human; design: key to Human cancer cell lines IC50, HCT (Colon): Inactive: inactive, if IC50 > 100 μM; conditions: for Human cancer cell lines IC50, HCT (Colon) / IC50: SRB assay, 48 hours incubation; for IC50: read-out: Human cancer cell lines IC50, HCT (Colon)
Method: as §1

THP-1 (Leukemia) = test: Sulphorhodamine B cytotoxicity assay, THP-1; format: cell-based, human; design: key to Human cancer cell lines IC50, THP-1 (Leukemia): Inactive: inactive, if IC50 > 100 μM; conditions: for Human cancer cell lines IC50, THP-1 (Leukemia) / IC50: SRB assay, 48 hours incubation; for IC50: read-out: Human cancer cell lines IC50, THP-1 (Leukemia)
Method: as §1

HeLa (Cervix) = test: Sulphorhodamine B cytotoxicity assay, HeLa; format: cell-based, human; design: key to Human cancer cell lines IC50, HeLa (Cervix): Inactive: inactive, if IC50 > 100 μM; conditions: for Human cancer cell lines IC50, HeLa (Cervix) / IC50: SRB assay, 48 hours incubation; for IC50: read-out: Human cancer cell lines IC50, HeLa (Cervix)
Method: as §1

MCF-7 (Breast cancer) = test: Sulphorhodamine B cytotoxicity assay, MCF-7; format: cell-based, human; design: key to Human cancer cell lines IC50, MCF-7 (Breast cancer): Inactive: inactive, if IC50 > 100 μM; conditions: for IC50: read-out: Human cancer cell lines IC50, MCF-7 (Breast cancer)
Method: as §1

DU-145 (prostate) = test: Sulphorhodamine B cytotoxicity assay, DU-145; format: cell-based, human; design: key to Human cancer cell lines IC50, DU-145 (prostate): Inactive: inactive, if IC50 > 100 μM; conditions: SRB assay, 48 hours incubation; for IC50: Homo sapiens, DU-145, read-out: Human cancer cell lines IC50, DU-145 (prostate)
Method: as §1

tubulin protein = test: In-vitro tubulin polymerisation inhibition assay; format: biochemical; design: key to Tubulin polymerisation inhibition IC50: Inactive: inactive, if IC50 > 10 μM; conditions: for Tubulin polymerisation inhibition IC50 / IC50: tubulin 3 mg/mL, 37° C., 340 nm, 1 h; for IC50: read-out: Tubulin polymerisation inhibition IC50
Method: The tubulin polymerization experiment was performed using ‘assay kit’ (Cytoskeleton USA) following manufacturer's protocol based on the procedure described by of Shelanski et al. (1973) and Lee et al. (1977). Briefly, tubulin protein (3 mg/mL) in tubulin polymerization buffer (80 mM PIPES, pH 6.9, 2 mM MgCl2, 0.5 mM EGTA, 1 mM GTP and 15% glycerol) was placed in pre-warmed 96-well microtiter plates at 37° C. in the presence of test compounds with variable concentrations. All samples were mixed well and polymerization was monitored kinetically at 340 nm every min for 1 h using a Spectramax plate reader. Podophyllotoxin and etoposide were used as positive controls and DMSO as negative control. The IC50 value was determined from dose-dependent analysis and is defined as the concentration that inhibits the rate of polymerization by 50%.
Podophyllotoxin and etoposide, standard tubulin polymerisation inhibitors were used as positive controls.

[1] = Homo sapiens, A549, SRB assay, 48 hours incubation
[2] = Homo sapiens, MCF7, SRB assay, 48 hours incubation

| Structure (SMILES) | IC50 (PC-3 (prostate)) | Human cancer cell lines IC50, HeLa (Cervix) (HeLa (Cervix)) | IC50 (DU-145 (prostate)) | Tubulin polymerisation inhibition IC50 (tubulin protein) | melting point | IC50 (A549 (Lung); [1]) | Human cancer cell lines IC50, PC-3 (prostate) (PC-3 (prostate)) | IC50 (HCT (Colon); Homo sapiens) | IC50 (MCF-7 (Breast cancer); [2]) | Human cancer cell lines IC50, DU-145 (prostate) (DU-145 (prostate)) | IC50 (tubulin protein) | IC50 (THP-1 (Leukemia); Homo sapiens, THP-1) | IC50 (HeLa (Cervix); Homo sapiens, HeLa) | further results |
| --- | --- | --- | --- | --- | --- | --- | --- | --- | --- | --- | --- | --- | --- | --- |
| COc1cc(C2/C(=C/c3ccc(OCc4ccccc4)cc3)C(=O)c3cc(OC)c(OC)c(OC)c32)cc(OC)c1OC (stereo not shown) [Compound 22, 2-(4″-benzyloxybenzylidene), 3-(3′,4′,5′-trimethoxyphenyl)-4,5,6-trimethoxy indan-1-one] | 78.9 µM | Inactive | 78.9 µM | Inactive | 188 to 190 °C |  |  |  |  |  |  |  |  | Human cancer cell lines IC50, A549 (Lung) (A549 (Lung); SRB assay, 48 hours incubation): Inactive; Human cancer cell lines IC50, HCT (Colon) (HCT (Colon)): Inactive; Human cancer cell lines IC50, THP-1 (Leukemia) (THP-1 (Leukemia)): Inactive; Human cancer cell lines IC50, MCF-7 (Breast cancer) (MCF-7 (Breast cancer); SRB assay, 48 hours incubation): Inactive |
| COc1cc(C2/C(=C/c3cccc4c3OCO4)C(=O)c3cc(OC)c(OC)c(OC)c32)cc(OC)c1OC (stereo not shown) [Compound 17, 2-(2″,3″-methylenedioxybenzlidene), 3-(3′,4′,5′-trimethoxyphenyl)-4,5,6-trimethoxy indan-1-one] |  | Inactive |  | Inactive | 180 to 182 °C | 82.2 µM | Inactive | 45.9 µM | 57.2 µM | Inactive |  |  |  | Human cancer cell lines IC50, THP-1 (Leukemia) (THP-1 (Leukemia)): Inactive |
| COc1ccc(/C=C2\C(=O)c3cc(OC)c(OC)c(OC)c3C2c2cc(OC)c(OC)c(OC)c2)c(OC)c1 (stereo not shown) [Compound 21, 2-(2″,4″-dimethoxybenzylidene), 3-(3′,4′,5′-trimethoxyphenyl)-4,5,6-trimethoxy indan-1-one] | 71.7 µM | Inactive | 2.04 µM |  | 191 to 192 °C | 71.6 µM |  | 11.1 µM | 1 µM |  | 3.04 µM |  |  | Human cancer cell lines IC50, THP-1 (Leukemia) (THP-1 (Leukemia)): Inactive; anticancer activity against human breast cancer cells (MCF-7), in words (MCF-7 (Breast cancer)): potent anticancer activity; inhibition of tubulin polymerisation, in words (tubulin protein): strong inhibition |
| COc1cc(OC)c(OC)cc1/C=C1\C(=O)c2cc(OC)c(OC)c(OC)c2C1c1cc(OC)c(OC)c(OC)c1 (stereo not shown) [Compound 16, 2-(2″,4″,5″-trimethoxybenzylidene), 3-(3′,4′,5′-trimethoxyphenyl)-4,5,6-trimethoxy indan-1-one] | 64.9 µM | Inactive |  |  | 203 to 205 °C | 87.2 µM |  |  | 56.5 µM | Inactive | 4.21 µM | 81.5 µM |  | Human cancer cell lines IC50, HCT (Colon) (HCT (Colon)): Inactive; inhibition of tubulin polymerisation, in words (tubulin protein): strong inhibition |
| CO[C@@]12[C@H](COC(N)=O)C3=C(C(=O)C(C)=C(N)C3=O)N1C[C@@H]1N[C@@H]12 [Mitomycin-c, reference compound] |  |  |  |  |  |  |  |  |  |  |  |  |  | % Inhibition, PC-3 (Prostate) (PC-3 (prostate); positive control at 1 μM): 61% |
| COc1cc([C@@H]2c3cc4c(cc3[C@@H](O[C@@H]3O[C@@H]5CO[C@@H](C)O[C@H]5[C@H](O)[C@H]3O)[C@H]3COC(=O)[C@H]23)OCO4)cc(OC)c1O [Etoposide, reference compound] |  |  |  |  |  | 5.4 µM | Inactive | 6.5 µM | 1.5 µM | Inactive | […] | < 1 µM | < 1 µM |  |
| COc1cc(C2C(=Cc3ccccc3)C(=O)c3cc(OC)c(OC)c(OC)c32)cc(OC)c1OC (stereo not shown) [Compound 14, 2-benzylidene, 3-(3′,4′,5′-trimethoxyphenyl)-4,5,6-trimethoxy indan-1-one] | 50.6 µM |  |  | Inactive | 139 to 141 °C | 47.5 µM |  | 14.9 µM | 42.5 µM | Inactive |  | 32.7 µM | 14.1 µM |  |
| COc1cc(/C=C2\C(=O)c3cc(OC)c(OC)c(OC)c3C2c2cc(OC)c(OC)c(OC)c2)cc(OC)c1OC (stereo not shown) [Compound 9, 2-(3″,4″,5″-trimethoxybenzylidene), 3-(3′,4′,5′-trimethoxyphenyl)-4,5,6-trimethoxy indan-1-one] |  |  |  |  | 118 to 120 °C | 67.6 µM | Inactive | 39.7 µM | 38.9 µM | Inactive | 4.62 µM | 64.9 µM | 82.3 µM | inhibition of tubulin polymerisation, in words (tubulin protein): strong inhibition |
| CC(=O)O[C@H]1C(=O)[C@@]2(C)[C@H]([C@H](OC(=O)c3ccccc3)[C@]3(O)C[C@H](OC(=O)[C@H](O)[C@@H](NC(=O)c4ccccc4)c4ccccc4)C(C)=C1C3(C)C)[C@]1(OC(C)=O)CO[C@@H]1C[C@@H]2O [Paclitaxel, reference compound] |  |  |  |  |  |  |  |  |  |  |  |  |  | inhibition at 1 µM (A549 (Lung); Homo sapiens, A549, positive control at 1 μM): 69% |
| COc1cccc2c1C(=O)c1c(O)c3c(c(O)c1C2=O)C[C@@](O)(C(=O)CO)C[C@@H]3O[C@H]1C[C@H](N)[C@H](O)[C@H](C)O1 [Adriamycin, reference compound] |  |  |  |  |  |  |  |  |  |  |  |  |  | inhibition at 1 µM (MCF-7 (Breast cancer); Homo sapiens, MCF7, positive control at 1 μM): 65% |
| COc1cc([C@@H]2c3cc4c(cc3[C@H](O)[C@H]3COC(=O)[C@H]23)OCO4)cc(OC)c1OC [Podophyllotoxin, reference compound] | 91.5 µM |  | 91.5 µM |  |  | < 1 µM |  | < 1 µM | < 1 µM |  | […] | < 1 µM | < 1 µM |  |
| COc1ccccc1/C=C1\C(=O)c2cc(OC)c(OC)c(OC)c2C1c1cc(OC)c(OC)c(OC)c1 (stereo not shown) [Compound 19, 2-(2″-methoxybenzylidene), 3-(3′,4′,5′-trimethoxyphenyl)-4,5,6-trimethoxy indan-1-one] |  | Inactive | 21.5 µM | Inactive | 191 to 192 °C | 62.6 µM | Inactive |  |  |  |  | 29.3 µM |  | Human cancer cell lines IC50, HCT (Colon) (HCT (Colon)): Inactive |
| O=c1[nH]cc(F)c(=O)[nH]1 [5-Fluorouracil, reference compound] |  |  |  |  |  |  |  |  |  |  |  |  |  | inhibition at 20 µM (HCT (Colon); Homo sapiens, positive control at 20 μM): 65%; inhibition at 20 µM (THP-1 (Leukemia); Homo sapiens, THP-1, positive control at 20 μM): 74%; inhibition at 20 µM (HeLa (Cervix); Homo sapiens, HeLa, positive control at 20 μM): 70% |
